{"source": "patent US8044201B2", "about": "“Stem cell cultures” (The Scripps Research Institute, priority 2008, dated 2011)", "key": {"hESCs [1]": {"system": "hESCs", "assay": "ALP positive colony formation by dissociated hESCs (clonal / low-density survival assay)", "assay_type": "cell-based, human", "settings": "PKC agonist treatment", "protocol": "(§1) Human ESC lines H1, HUES7 and HUES9 were cultured on irradiated MEF feeder cells in DMEM-F12 supplemented with 2 mM L-glutamine, 1× nonessential amino acids, 20% serum replacement (Invitrogen) and 10 ng/ml basic Fibroblast growth factor (Invitrogen). Chemically-defined and feeder-free hESC culture was described previously (Yao, S. et al., Proc Natl Acad Sci USA 103 (18):6907-6912 (2006)). Briefly, hESCs were grown on Matrigel-coated tissue culture plates in N2B27-CDM (DMEM-F12 supplemented with 1× N2 supplements, 1× B27 supplements, 2 mM L-glutamine, 0.11 mM 2-mercaptoethanol, 1× nonessential amino acids, and 0.5 mg/ml BSA (fraction V)) and 20 ng/ml bFGF. Human ESCs were passaged every 5-6 days with 0.05% trypsin.\nFor clonal survival assays, single hESCs were diluted to clonal density and plated onto 96-well Matrigel-coated plate. For low-density survival assays, 500 cells were plated onto 96-well Matrigel-coated plate. To visualize hESC colonies, cultures were fixed in 4% paraformaldehyde in PBS for 5 min, washed once in PBS, then stained for alkaline phosphatase activity as described in manufacturer's instructions. ALP positive colonies were counted on an inverted microscope."}, "hESCs [2]": {"system": "hESCs", "assay": "Cell adhesion assay of dissociated hESCs", "assay_type": "cell-based, human", "protocol": "Cell adhesion assays were performed in 96-well microtiter plates coated with Matrigel. After trypsin, hESCs were resuspended in the chemically-defined media containing the desired compounds. Cells were then added to the microtiter wells and incubated for 3 h at 37° C. Unbound and loosely bound cells were removed by shaking and washing, and the remaining cells were then fixed immediately. The wells were washed 3 times with 200 μl of H2O, and attached cells were stained with Crystal Violet (Sigma). The absorbance of each well at 570 nm was then measured. For experiments with blocking antibodies, cells were pre-incubated with antibodies on ice for 30 min, and adhesion assays were performed in the presence of antibodies. Each sample was assayed independently for three times."}, "β1 integrin": {"system": "β1 integrin", "assay": "Active conformation of β1 integrin in hESCs (HUTS-21 binding, flow cytometry and immunostaining)", "assay_type": "cell-based, human", "settings": "for level of HUTS-21 binding (activated β1 integrin): trypsin-dissociated hESCs", "from_the_text": "To gain insights into the mechanism of β1 integrin regulation by Tzv and Ptn, we investigated whether the compounds' effect is due to changes of integrin expression. In contrast to E-cadherin, β1 integrin was not cleaved by trypsin. […] Thus, Tzv and Ptn are likely to affect cell adhesion by modulating integrin activity (FIGS. 3d,e). To examine the effects of compound treatment on the activity of β1 integrin, we used the monoclonal antibody HUTS-21, which specifically binds to the activated form of the β1 integrin (Luque, A. et al., J Biol Chem 271 (19):11067-11075 (1996)).\n(§2) To assess the expression of E-cadherin, activated integrin and SSEA4, dissociated cells (3×10^5) were washed with PBS and resuspended in PBS containing 2% goat serum. Cells were then incubated with the appropriate antibody for 1 h at 4° C., washed with the blocking solution, and labeled with FITC-conjugated secondary antibody for 30 min at 4° C. Cells were then washed and analyzed on a FACS Calibur flow cytometer."}, "hESCs [3]": {"system": "hESCs", "assay": "Cell death / survival analysis of dissociated hESCs in adherent (Matrigel) or suspension culture", "assay_type": "cell-based, human", "settings": "for survival of dissociated hESCs in adherent culture: Matrigel-coated plate; for survival of dissociated hESCs in adherent culture / survival of dissociated hESCs in suspension culture: 2 μM", "protocol": "as §1\nThe hESCs under different treatments were dissociated by trypsin and fixed by 4% paraformaldehyde. And the staining was carried out according to the manufacturer's instructions (MBL Laboratories, Watertown, Mass.). After staining, samples were analysed by flow cytometry using a FACS Calibur flow cytometer (BD)."}, "hESCs [4]": {"system": "hESCs", "assay": "Long-term serial passage of hESCs in Tzv or Ptn-containing chemically-defined medium (morphology, pluripotency markers, karyotype)", "assay_type": "cell-based, human", "settings": "serially passaged for more than 20 generations in compound-containing chemically-defined medium", "protocol": "as §1\nImmunostaining was performed as described previously (Yao, S. et al., Proc Natl Acad Sci USA 103 (18):6907-6912 (2006)). Briefly, cells were fixed with 4% paraformaldehyde at room temperature (RT) for 15 min. The cells were then incubated at RT in blocking buffer for 1 hour. […]\nTeratoma formation experiments were performed by injecting 3-5 million hESCs (maintained in the presence of compounds Tvz or Ptn) under the kidney capsule of nude mice. After 4-5 weeks, all mice developed teratomas, which were removed and then immunohistologically analyzed by The Scripps Research Institute Research Histology Service and Animal Resources. […]"}, "E-cadherin": {"system": "E-cadherin", "assay": "E-cadherin level in hESCs after trypsin dissociation (Western blot, flow cytometry, semiquantitative RT-PCR)", "assay_type": "cell-based, human", "protocol": "as §2"}, "[5]": {"system": "E-cadherins to EGFR1 and ERB2", "assay": "Immunoprecipitation of E-cadherins with EGFR1 and ERB2 in hESCs", "assay_type": "cell-based, human", "from_the_text": "ALP detection kit and integrin antibodies were from Chemicon. AG825 (Erb2 inhibitor), AG1478 (EGFR inhibitor), PPP (IGFR1 inhibitor) were purchased from Calbiochem. Antibodies raised against the intracytoplasmic tail of E-cadherins (Transduction Laboratories, Lexington, Ky.) were used for immunoprecipitation. The antibody TS2/16 was from Pierce. Antibodies to the extracellular domain of E-cadherin molecule were from Zymed (Carlsbad). Antibodies against extracellular signal-regulated kinase/MAPK, EGFR1, ERB2, GADPH and phosphorylated form of AKT were from Cell Signaling. Mouse monoclonal anti-phosphotyrosine (4G-10 clone) was from Upstate Biotechnology. Ptn and Tzv were added to culture medium at 2 μM."}, "[6]": {"system": "primary human pancreatic islets/beta cells", "assay": "Cell death of dispersed primary pancreatic islets/beta cells plated as single cells on matrigel or laminin", "assay_type": "cell-based", "settings": "1-2 mM added to the media", "protocol": "For example, the inventors dispersed primary human pancreatic islets/beta cells plated as single cells onto a tissue culture plate that was coated with matrigel or laminin. […] Accordingly, in some embodiments, a compound of the present invention is administered to an individual in need of pancreatic beta and/or islet cells, wherein administration of the compound results in an increase in the number of beta or islet cells in the individual."}, "[7]": {"system": "epithelial to mesenchymal transition/EMT", "assay": "Epithelial to mesenchymal transition (EMT) / MET", "assay_type": "cell-based"}, "[8]": {"system": "mouse P1 cortical explants", "assay": "Neurite / axon outgrowth from cortical explants", "assay_type": "cell-based", "protocol": "Compounds of formula I and III (i.e., Tvz and Ptn) are effective at promoting axonal regeneration and functional recovery in injured central nervous system. […] Tzv (3 μM) was tested on mouse P1 cortical explants, with axon outgrowth as an outcome read-out. Tzv was added to the medium 20 minutes after plating, with DMSO as a control. […] Accordingly, in some embodiments, a compound of the present invention is administered to an individual having a central nervous system injury or who is in need or would otherwise benefit from axonal regeneration."}, "[9]": {"system": "human embryonic stem cell, mouse embryonic stem cell, multiple neural stem cells, skin stem cells, mesenchymal stem cells, hematopoietic stem cells, stromal …", "assay": "Survival and anti-differentiation of stem cells ex vivo after isolation", "assay_type": "cell-based", "settings": "contacted immediately after isolation of the cells", "from_the_text": "In some embodiments, the invention provides methods of promoting survival and anti-differentiation in stem cells ex-vivo."}, "growth factor receptor": {"system": "growth factor receptor", "assay": "Western blot of growth factor receptor phosphorylation in hESCs", "assay_type": "cell-based, human", "settings": "hESCs treated for 2 h, DMSO control"}, "ERK and AKT": {"system": "ERK and AKT", "assay": "Western blot of ERK and AKT phosphorylation in dissociated hESCs", "assay_type": "cell-based, human"}}, "note": "Entries after “also recorded” stand apart in the source; their conditions may differ.", "data": [{"smiles": "CCCCCCCCCCCCCC(=O)O[C@@H]1[C@@H](C)[C@@]2(O)[C@@H](C=C(CO)C[C@]3(O)C(=O)C(C)=C[C@@H]23)[C@@H]2C(C)(C)[C@]12OC(C)=O", "note": "[PMA, phorbol 12-myristate 13-acetate, reference compound]", "values": [{"measurement": "colony formation of dissociated hESCs", "setting": "hESCs [1]", "value": "substantial increase"}, {"measurement": "cell adhesion of dissociated hESCs", "setting": "hESCs [2]; PKC agonist treatment", "value": "substantial increase"}, {"measurement": "integrin activation", "setting": "β1 integrin; dissociated hESCs, PMA 10 nM (FIG. 3k)", "value": "integrin activation"}]}, {"smiles": "CN(C)CCCn1cc(C2=C(c3c[nH]c4ccccc34)C(=O)NC2=O)c2ccccc21", "note": "[bisindolylmaleimide I, reference compound]", "values": [{"measurement": "effect on increased cell adhesion induced by Ptn", "setting": "hESCs [2]; in combination with Ptn", "value": "antagonize"}, {"measurement": "effect on cell adhesion induced by Tzv", "setting": "hESCs [2]; in combination with Tzv", "value": "no effect"}]}, {"smiles": "O=C(NCc1ccccc1)c1csc(Nc2ccncn2)n1", "note": "[Tzv, N-benzyl-2-(pyrimidin-4-ylamino)thiazole-4-carboxamide]", "values": [{"measurement": "survival of dissociated hESCs in adherent culture", "setting": "hESCs [3]", "value": "greatly improved survival; also recorded: dramatic effect on survival"}, {"measurement": "cell aggregate formation in suspension", "setting": "hESCs [3]; hESCs grown in suspension", "value": "formed nice cell aggregates"}, {"measurement": "survival of dissociated hESCs in suspension culture", "setting": "hESCs [3]", "value": "greatly improved survival"}, {"measurement": "maintenance of hESC morphology, pluripotency markers and karyotype", "setting": "hESCs [4]", "value": "maintained the characteristic morphology of hESCs, the expression of typical pluripotency markers, and normal karyotype"}, {"measurement": "full-length E-cadherin expression (Western blot)", "setting": "E-cadherin; hESCs after trypsin dissociation", "value": "significantly increased"}, {"measurement": "cell surface E-cadherins (flow cytometry)", "setting": "E-cadherin; hESCs after trypsin treatment", "value": "significantly increased"}, {"measurement": "E-cadherin transcripts (semiquantitative RT-PCR)", "setting": "E-cadherin; vs mock controls", "value": "comparable amounts"}, {"measurement": "adhesion of dissociated hESCs to Matrigel or laminin", "setting": "hESCs [2]", "value": "dramatically increased adhesion"}, {"measurement": "adhesion of hESCs to gelatin or poly-lysine", "setting": "hESCs [2]", "value": "not affected"}, {"measurement": "level of HUTS-21 binding (activated β1 integrin)", "setting": "β1 integrin", "value": "increased"}, {"measurement": "binding of E-cadherins to EGFR1 and ERB2", "setting": "[5]", "value": "induced binding"}, {"measurement": "cell death of pancreatic islets/beta cells", "setting": "[6]", "value": "cell death was inhibited"}, {"measurement": "induction of MET and inhibition of EMT", "setting": "[7]", "value": "induce MET (the reverse of EMT) and inhibit EMT"}, {"measurement": "axon outgrowth", "setting": "[8]; 3 μM, added 20 minutes after plating, observed 4 days, DMSO control", "value": "dramatic effect in promoting axon outgrowth"}, {"measurement": "neurite outgrowth from primary neuronal cells", "setting": "[8]; primary neuronal cells from mice", "value": "promote neurite outgrowth"}, {"measurement": "survival and anti-differentiation of stem cells", "setting": "[9]", "value": "effective in promoting survival and anti-differentiation"}]}, {"smiles": "O=S(=O)(NCC1CC1)c1ccc(Nc2nccc(N3CCCc4cc(O)ccc43)n2)cc1", "note": "[Ptn, N-(cyclopropylmethyl)-4-(4-(6-hydroxy-3,4-dihydroquinolin-1(2H)-yl)pyrimidin-2-ylamino)benzenesulfonamide]", "values": [{"measurement": "survival of dissociated hESCs in adherent culture", "setting": "hESCs [3]", "value": "promoted survival; also recorded: dramatic effect on survival"}, {"measurement": "survival of dissociated hESCs in suspension culture", "setting": "hESCs [3]", "value": "no effect"}, {"measurement": "maintenance of hESC morphology, pluripotency markers and karyotype", "setting": "hESCs [4]", "value": "maintained the characteristic morphology of hESCs, the expression of typical pluripotency markers, and normal karyotype"}, {"measurement": "adhesion of dissociated hESCs to Matrigel or laminin", "setting": "hESCs [2]", "value": "dramatically increased adhesion"}, {"measurement": "adhesion of hESCs to gelatin or poly-lysine", "setting": "hESCs [2]", "value": "not affected"}, {"measurement": "level of HUTS-21 binding (activated β1 integrin)", "setting": "β1 integrin", "value": "increased"}, {"measurement": "phosphorylation of growth factor receptor", "setting": "growth factor receptor", "value": "significantly increased"}, {"measurement": "phosphorylation of ERK and AKT", "setting": "ERK and AKT", "value": "increased"}, {"measurement": "induction of MET and inhibition of EMT", "setting": "[7]", "value": "induce MET (the reverse of EMT) and inhibit EMT"}, {"measurement": "survival and anti-differentiation of stem cells", "setting": "[9]", "value": "effective in promoting survival and anti-differentiation"}]}]}
